Reference: US11566212B2, “Integrated microfluidic system for culturing and testing” (priority 2016, dated 2023)
Read-outs that look alike come from different tables or passages of the source.

Assays:
[1] = not given; remark: listed apart in the source
[2] = Diffusion chips, silicone membrane soaked in isopropyl myristate
[3] = Franz cells, silicone membrane soaked in isopropyl myristate

SMILES: Cn1c(=O)c2c(ncn2C)n(C)c1=O [caffeine]
- Steady state flux (24 h): 13 μg/cm^2 h
- Dm (diffusion coefficient) [2]: 1.8 10^−3 cm^2/h
- tlag (lag time) [2]: 0.37 h
- Steady state flux ([1]; 24 h): 13 μg/cm^2 h
- Dm (diffusion coefficient) [1, 3]: 1.3 10^−3 cm^2/h
- tlag (lag time) [1, 3]: 0.52 h
